Test results taken from PubChem BioAssay AID330 (DTP/NCI, 2004).
Where “and” joins values, the source holds several entries; their conditions need not be identical. Equal entries are not always repeated. Toxic doses and inconclusive results are not listed. How the source made its calls: active means survival T/C of 150% or more; inactive means T/C below 125% in these data. Peptide text beside a SMILES is read from it.

Tested on: P388 leukemia ip, CD2F1 mice, survival T/C
Assay: NCI In Vivo Anticancer Drug Screen. Data for tumor model P388 Leukemia (intraperitoneal) in CD2F1 (CDF1) mice
Settings: endpoint: median survival time, higher = longer survival
How it was run: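 Mice carrying the transplanted tumor received test compound or vehicle. Survival was recorded in each group, and the value is the treated-group measurement divided by that of the vehicle-treated control group.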

[1] = dose: 60.0 mg/kg/injection, schedule: Q01DX005 (ip), vehicle: saline
[2] = dose: 120.0 mg/kg/injection, schedule: Q01DX005 (ip), vehicle: saline
[3] = dose: 25.0 mg/kg/injection, schedule: Q01DX009 (ip), vehicle: saline with Tween-80
[4] = dose: 50.0 mg/kg/injection, schedule: Q01DX009 (ip), vehicle: saline with Tween-80
[5] = dose: 100.0 mg/kg/injection, schedule: Q01DX009 (ip), vehicle: saline with Tween-80
[6] = dose: 200.0 mg/kg/injection, schedule: Q01DX009 (ip), vehicle: saline with Tween-80
[7] = dose: 50.0 mg/kg/injection, schedule: Q01DX005 (ip), vehicle: saline
[8] = dose: 100.0 mg/kg/injection, schedule: Q01DX005 (ip), vehicle: saline
[9] = dose: 200.0 mg/kg/injection, schedule: Q01DX005 (ip), vehicle: saline
[10] = dose: 50.0 mg/kg/injection, schedule: Q01DX005 (ip), vehicle: saline with Tween-80

Measured: T/C

O=C(O)C1C2OC(C(Cl)C2Cl)C1C(=O)O (centres undefined)
inactive: dose: 15.0 mg/kg/injection, schedule: Q01DX005 (ip), vehicle: saline 97 % of control | dose: 30.0 mg/kg/injection, schedule: Q01DX005 (ip), vehicle: saline 94 % of control | [1] 95 % of control | [2] 87 % of control

CN(N=O)c1ccc(N=Nc2ccccc2)cc1
inactive: dose: 60.0 mg/kg/injection, schedule: Q01DX005 (ip), vehicle: Klucel (hydroxypropylcellulose) (HPC) 98 % of control | dose: 120.0 mg/kg/injection, schedule: Q01DX005 (ip), vehicle: Klucel (hydroxypropylcellulose) (HPC) 95 % of control | dose: 240.0 mg/kg/injection, schedule: Q01DX005 (ip), vehicle: Klucel (hydroxypropylcellulose) (HPC) 86 % of control

COC1/C=C/OC2(C)Oc3c(C)c(O)c4c(O)c(c(/C=N/N5C(C)CN(Cc6ccc([N+](=O)[O-])cc6)CC5C)c(O)c4c3C2=O)NC(=O)/C(C)=C\C=C\C(C)C(O)C(C)C(O)C(C)C(OC(C)=O)C1C (centres undefined)
inactive: [3] 100 % of control | dose: 25.0 mg/kg/injection, schedule: Q01DX009 (ip), vehicle: suspension in saline 103 % of control | [4] 104 % of control and 119 % of control | dose: 50.0 mg/kg/injection, schedule: Q01DX009 (ip), vehicle: suspension in saline 103 % of control | [5] 119 % of control | dose: 100.0 mg/kg/injection, schedule: Q01DX009 (ip), vehicle: suspension in saline 108 % of control | dose: 200.0 mg/kg/injection, schedule: Q01DX009 (ip), vehicle: suspension in saline 119 % of control

CNc1ccccc1C(=O)C(=O)O
inactive: [5] 105 % of control | [6] 102 % of control | dose: 400.0 mg/kg/injection, schedule: Q01DX009 (ip), vehicle: saline with Tween-80 100 % of control

Nc1nnc2nc(CC(=O)c3ccc4ccccc4c3)c(=O)[nH]n12
inactive: [1] 95 % of control | [2] 100 % of control | dose: 240.0 mg/kg/injection, schedule: Q01DX005 (ip), vehicle: saline 103 % of control

CCN(CC)Cc1cc(N=Nc2cc(OC)c(N=Nc3ccc([N+](=O)[O-])cc3)cc2OC)c2ccccc2c1O
inactive: dose: 12.5 mg/kg/injection, schedule: Q01DX009 (ip), vehicle: Klucel (hydroxypropylcellulose) (HPC) 110 % of control | dose: 25.0 mg/kg/injection, schedule: Q01DX009 (ip), vehicle: Klucel (hydroxypropylcellulose) (HPC) 100 % of control | dose: 50.0 mg/kg/injection, schedule: Q01DX009 (ip), vehicle: Klucel (hydroxypropylcellulose) (HPC) 107 % of control and 90 % of control | dose: 100.0 mg/kg/injection, schedule: Q01DX009 (ip), vehicle: Klucel (hydroxypropylcellulose) (HPC) 100 % of control (2×) and 94 % of control | dose: 400.0 mg/kg/injection, schedule: Q01DX009 (ip), vehicle: Klucel (hydroxypropylcellulose) (HPC) 101 % of control and 91 % of control

CC1(C)Nc2cccc3c(N=Nc4ccc(N=Nc5ccccc5)c5ccccc45)ccc(c23)N1
inactive: [3] 120 % of control and 95 % of control and 97 % of control | [4] 101 % of control and 103 % of control and 112 % of control | [5] 104 % of control and 123 % of control and 91 % of control | [6] 94 % of control and 95 % of control

O=[N+]([O-])c1cccc(N=Nn2cccc2)c1
inactive: [3] 100 % of control | [4] 100 % of control | [5] 109 % of control

NC(CSC(c1ccccc1)(c1ccccc1)c1ccc(CO)cc1)C(=O)O (centres undefined)
inactive: dose: 12.5 mg/kg/injection, schedule: Q01DX009 (ip), vehicle: saline with Tween-80 118 % of control

CC(N)C(=O)NCC(=O)NCC(=O)O (centres undefined)
inactive: [7] 100 % of control | [8] 106 % of control | [9] 99 % of control

CNC(=O)OCc1nc(-c2ccccc2)oc1COC(=O)NC
inactive: dose: 12.5 mg/kg/injection, schedule: Q01DX005 (ip), vehicle: distilled water + Tween-80 96 % of control | dose: 25.0 mg/kg/injection, schedule: Q01DX005 (ip), vehicle: distilled water + Tween-80 97 % of control | dose: 50.0 mg/kg/injection, schedule: Q01DX005 (ip), vehicle: distilled water + Tween-80 92 % of control | dose: 100.0 mg/kg/injection, schedule: Q01DX005 (ip), vehicle: distilled water + Tween-80 89 % of control | dose: 200.0 mg/kg/injection, schedule: Q01DX005 (ip), vehicle: distilled water + Tween-80 89 % of control

CCOP(=O)(O)OCC
inactive: dose: 100.0 mg/kg/injection, schedule: Q04DX003 (ip), vehicle: Klucel (hydroxypropylcellulose) (HPC) 93 % of control | dose: 200.0 mg/kg/injection, schedule: Q04DX003 (ip), vehicle: Klucel (hydroxypropylcellulose) (HPC) 89 % of control | dose: 400.0 mg/kg/injection, schedule: Q04DX003 (ip), vehicle: Klucel (hydroxypropylcellulose) (HPC) 96 % of control

C=CN=NNc1ccc(C#N)cc1
inactive: dose: 100.0 mg/kg/injection, schedule: Q04DX003 (ip), vehicle: saline with Tween-80 90 % of control | dose: 200.0 mg/kg/injection, schedule: Q04DX003 (ip), vehicle: saline with Tween-80 106 % of control

CC(C)C(C(F)C(=O)OCc1ccccc1)N(Cc1ccccc1)Cc1ccccc1 (centres undefined)
inactive: dose: 50.0 mg/kg/injection, schedule: Q01DX005 (ip), vehicle: Klucel (hydroxypropylcellulose) (HPC) 98 % of control | dose: 100.0 mg/kg/injection, schedule: Q01DX005 (ip), vehicle: Klucel (hydroxypropylcellulose) (HPC) 91 % of control | dose: 200.0 mg/kg/injection, schedule: Q01DX005 (ip), vehicle: Klucel (hydroxypropylcellulose) (HPC) 89 % of control

O=C1NN2CCN=C2c2ccncc21
inactive: [7] 97 % of control | [8] 103 % of control | [9] 100 % of control

CCSC(=O)/C=C\C=[N+](/[O-])OC
inactive: dose: 12.5 mg/kg/injection, schedule: Q01DX009 (ip), vehicle: other 103 % of control | dose: 25.0 mg/kg/injection, schedule: Q01DX009 (ip), vehicle: other 104 % of control | dose: 50.0 mg/kg/injection, schedule: Q01DX009 (ip), vehicle: other 112 % of control and 94 % of control | dose: 100.0 mg/kg/injection, schedule: Q01DX009 (ip), vehicle: other 97 % of control

CC(=O)OCC1OC(n2ncc(=O)[nH]c2=O)C(OC(C)=O)C1OC(C)=O (centres undefined)
inactive: [4] 122 % of control | dose: 100.0 mg/kg/injection, schedule: Q01DX009 (ip), vehicle: saline sonified 118 % of control | [5] 122 % of control | dose: 200.0 mg/kg/injection, schedule: Q01DX009 (ip), vehicle: saline sonified 122 % of control | dose: 400.0 mg/kg/injection, schedule: Q01DX009 (ip), vehicle: saline sonified 118 % of control | dose: 800.0 mg/kg/injection, schedule: Q01DX009 (ip), vehicle: saline with Tween-80 100 % of control

CCC(=O)OCC1OC(OC2c3cc4c(cc3C(c3cc(OC)c(OC)c(OC)c3)C3C(=O)OCC23)OCO4)C(OC(=O)CC)C(OC(=O)CC)C1OC(=O)CC (centres undefined)
inactive: dose: 12.5 mg/kg/injection, schedule: Q01DX005 (ip), vehicle: saline with Tween-80 98 % of control | dose: 25.0 mg/kg/injection, schedule: Q01DX005 (ip), vehicle: saline with Tween-80 91 % of control | [10] 88 % of control and 89 % of control

NC(CCC(=O)O)C(=O)NC(CCC(=O)O)C(=O)O (stereo not drawn) (H-Glu-Glu-OH; configuration not given here)
inactive: [7] 97 % of control | [8] 103 % of control | [9] 104 % of control

CC(CCC(=O)O)(c1ccc(OC(=O)Nc2ccccc2Cl)cc1)c1ccc(OC(=O)Nc2ccccc2Cl)cc1
inactive: [10] 118 % of control | dose: 100.0 mg/kg/injection, schedule: Q01DX005 (ip), vehicle: saline with Tween-80 102 % of control | dose: 200.0 mg/kg/injection, schedule: Q01DX005 (ip), vehicle: saline with Tween-80 109 % of control

Cc1cc(Cl)ccc1NC(=O)C(=O)C(C#N)c1c(Cl)cccc1Cl (centres undefined)
inactive: dose: 100.0 mg/kg/injection, schedule: Q04DX002 (ip), vehicle: saline with Tween-80 101 % of control | dose: 200.0 mg/kg/injection, schedule: Q04DX002 (ip), vehicle: saline with Tween-80 105 % of control | dose: 400.0 mg/kg/injection, schedule: Q04DX002 (ip), vehicle: saline with Tween-80 100 % of control
